Data published in ChEMBL document CHEMBL3244288, “Antimalarials. 11. Synthesis of 3- and 5-aminoquinolines as potential antimalarials” (J Med Chem, 1979).
The source made the active and inactive calls. The rule behind the calls is not given here.

Key:
Type in all cases: functional, organism-based
Plasmodium cynomolgi [1] = assay: Antimalarial activity against sporozoite form of Plasmodium cynomolgi infected in juvenile rhesus monkey assessed as radical curative effect
Plasmodium berghei = assay: Antimalarial activity against Plasmodium berghei infected in mouse assessed as increase in mean survival time at 640 mg/kg, sc; parameters: dose 640 mg/kg
Leishmania donovani = assay: Antileishmanial activity against Leishmania donovani infected in golden hamster administered for 8 days
Plasmodium cynomolgi [2] = assay: Antimalarial activity against sporozoite form of Plasmodium cynomolgi infected in juvenile rhesus monkey assessed as radical curative effect at 10 mg/kg, administered 6 doses; parameters: dose 10 mg/kg

Row | Structure (SMILES) | Activity (Plasmodium cynomolgi [1]) | Activity (Plasmodium berghei) | Activity (Leishmania donovani) | Activity (Plasmodium cynomolgi [2])
1 | CCN(CC)CCNc1ccc(OC)c2ncccc12 | inactive | inactive | inactive | –
2 | COc1ccc(NC(C)CCCN)c2cccnc12 (configuration not stated) | – | inactive | inactive | Active
3 | COc1cc(NC(C)CCCN)c2nccc(C)c2c1 (configuration not stated) | Active | – | – | –
4 | COc1cc2cc(NC(C)CCCN)cnc2cc1OC (configuration not stated) | – | inactive | inactive | –
5 | COc1cc2ncc(NC(C)CCCN)c(C)c2cc1OC (configuration not stated) | – | inactive | inactive | –
6 | COc1cc(NC(C)CCCN)c2ncccc2c1 (configuration not stated) | Active | – | – | –
7 | COc1ccc2ncc(NC(C)CCCN)c(C)c2c1 (configuration not stated) | – | inactive | inactive | –
8 | CCN(CC)CCCC(C)Nc1ccc(OC)c2ncccc12 (configuration not stated) | inactive | inactive | inactive | –
